# Data taken from publication PMC9230030, “Discovery of a Multifunctional Octapeptide from Lingzhi with Antioxidant and Tyrosinase Inhibitory Activity” (Pharmaceuticals, 2022).
# Ends that are not written are not given here.
# Assays:
# [1] = Ferric reducing antioxidant power (FRAP) assay; details: octapeptide 1 mg/mL, 10 µL; 30 min room temperature in the dark, absorbance 593 nm; mean ± SD, n = 3
# Experimental: Since the antioxidant activity of a substance should be determined by different assays to study the radical scavenging mechanisms, the in vitro radical scavenging potential of the synthesized octapeptide was determined by three different common methods: 2,2-diphenyl-1-picrylhydrazyl (DPPH), 2,2′-azino-bis(3-ethylbenzothiazoline-6-sulfonate) (ABTS), and ferric reducing antioxidant power (FRAP) assays. […] The scavenging activities were calculated to be 0.121 ± 0.01 AsEAC and 0.173 ± 0.03 GaEAC for the DPPH and the ABTS assay, respectively.
# For the DPPH scavenging activity, 10 µL of the octapeptide (1 mg/mL) was mixed with 200 µL DPPH solution (0.2 mM in methanol). […] The DPPH scavenging activity of the samples was expressed as the ascorbic acid equivalent antioxidant capacity (AsEAC). For the ABTS scavenging activity, ABTS radical solution (7 mM ABTS stock solution with 2.45 mM potassium persulfate) was diluted in 5 mM phosphate buffer saline (Gibco, Waltham, MA, USA), pH 7.4, to acquire an absorbance of 0.50 at 734 nm before performing the assay. […] The absorbance of the mixture was evaluated at 734 nm. The ABTS scavenging activity of the samples was expressed as the gallic equivalent antioxidant capacity (GaEAC). […] The absorbance was measured at 593 nm. The FRAP scavenging activity of the samples was expressed as FeSO4 molar equivalents.
# mushroom tyrosinase = assay: In vitro tyrosinase inhibition assay (dopachrome, absorbance at 475 nm); format: biochemical; details: octapeptide 0.05 mg/mL
# Experimental: To understand how the octapeptide modulates melanogenic enzymes, the activity of tyrosinase in the presence of the peptide was measured by the colorimetric assay. We used the time-dependent assay to confirm that the inhibition reaction occurred with dopachrome accumulation (absorbance at 475 nm). The time-dependent tyrosinase inhibition and the inhibition percentage of the octapeptide at a 50 ug/mL concentration are shown in Figure 2. The inhibitory effect of the octapeptide was determined against mushroom tyrosinase. The mixture of 10 µL of tyrosinase (20 enzyme unit/mL) in 50 mM phosphate buffer, pH 6.8, was added to 96-well plates containing 10 µL of the octapeptide (final concentration = 0.05 mg/mL), then 180 µL of 1 mM L-DOPA was added to start the reaction. […] Monitoring the inhibitory activity by measuring the absorbance at 475 nm for 60 min in a kinetic manner (reading every 1 min) using a microplate reader (Synergy H1, Biotek Inc., Winooski, VT, USA). The tyrosinase inhibitory activity was expressed as a percentage of inhibition at the end-point reaction (t = 60 min) by the equation. […] where Abssample is the absorbance of the reaction with the octapeptide and Absblank denotes the absorbance of the reaction without the testing sample (a buffer in each assay was added instead of the testing sample).
# [2] = tested on: Ras-related protein Rab-7L1; Rab29; assay: Targeted proteomics in melanoma cells: Rab29; format: cell-based, Mus musculus; details: melanoma cells treated with octapeptide 50 μg/mL, 48 h, vs control; LC-MS/MS proteomics
# Experimental: (§1) Although using the tyrosinase enzyme extracted from a mushroom for an in vitro tyrosinase inhibitory assay has been widely studied as a routine screening for tyrosinase inhibition, tyrosinase from the mushroom is located in the cytoplasm and is different from the mammalian tyrosinase that is found on the membrane of melanocytes. Therefore, cell-based assays are also usually utilized to identify the potential tyrosinase inhibitor. In our study, the effects of the octapeptide at 50 μg/mL in melanoma cells was investigated by a proteomics approach. […]
# (§2) The Mus musculus skin melanoma cell line (B16-F10 ATCC, CRL-6475) and Cercopithecus aethiops kidney normal cell line (Vero ATCC, CCL-81) were used to explore the cell cytotoxicity. The effect of the octapeptide on the skin was evaluated in skin carcinoma cells. […] The cell viability was analyzed using the MTT (3-(4,5-dimethylthiazol-2-yl)-2,5-diphenyltetrazolium bromide) assay. […] After incubation for 24 h, the cell viability was measured by the optical absorbance at 630 and 570 nm using a microplate reader and transformed into the percentage of cell survival. […]
# (§3) The mzXML data were evaluated by the relative comparison of the peak intensities of each peptide ion in all datasets by DeCyder MS Differential Analysis software version 2.0 (GE Healthcare Co., Boston, MA, USA). […]
# [3] = tested on: L-dopachrome tautomerase; Dct; assay: Targeted proteomics in melanoma cells: Dct; format: cell-based, Mus musculus; details: melanoma cells treated with octapeptide 50 μg/mL, 48 h, vs control; LC-MS/MS proteomics
# Experimental: as §1, §2, §3
# [4] = tested on: 5,6-dihydroxyindole-2-carboxylic acid oxidase; Tyrp1; assay: Targeted proteomics in melanoma cells: Tyrp1; format: cell-based, Mus musculus; details: melanoma cells treated with octapeptide 50 μg/mL, 48 h, vs control; LC-MS/MS proteomics
# Experimental: as §1, §2, §3
sequence,measurement,setting,value
"PVRSSNCA [octapeptide, Proline-Valine-Arginine-Serine-Serine-Asparaine-Cysteine-Alanine]","FRAP reductant ability, FeSO4 molar equivalents",[1],2.21 ± 0.23 mM equivalent to FeSO4
same,tyrosinase inhibitory effect at end point (60 min),"mushroom tyrosinase; 1 mM L-DOPA, 50 mM phosphate buffer pH 6.8, 37 °C, t = 60 min, mean ± SD, n = 3",13.48 ± 2.12%
same,tyrosinase inhibitory effect during the first 30 min of the reaction,"mushroom tyrosinase; time-dependent assay, rate similar to control",not observed
same,Relative Expression (Fold) of Rab29,[2],2.0646 Fold
same,Relative Expression (Fold) of Dct,[3],2.0460 Fold
same,Relative Expression (Fold) of Tyrp1,[4],0.5034 Fold
